The values below come from the Kinase Knowledgebase extract (Sharma et al. 2016).

The target of the assay is PIK3CA (human) (UniProt P42336). Kind of assay: Assessment of PI3KCA Kinase Activity.
Sequence of PIK3CA (human) (P42336 whole entry, looked up): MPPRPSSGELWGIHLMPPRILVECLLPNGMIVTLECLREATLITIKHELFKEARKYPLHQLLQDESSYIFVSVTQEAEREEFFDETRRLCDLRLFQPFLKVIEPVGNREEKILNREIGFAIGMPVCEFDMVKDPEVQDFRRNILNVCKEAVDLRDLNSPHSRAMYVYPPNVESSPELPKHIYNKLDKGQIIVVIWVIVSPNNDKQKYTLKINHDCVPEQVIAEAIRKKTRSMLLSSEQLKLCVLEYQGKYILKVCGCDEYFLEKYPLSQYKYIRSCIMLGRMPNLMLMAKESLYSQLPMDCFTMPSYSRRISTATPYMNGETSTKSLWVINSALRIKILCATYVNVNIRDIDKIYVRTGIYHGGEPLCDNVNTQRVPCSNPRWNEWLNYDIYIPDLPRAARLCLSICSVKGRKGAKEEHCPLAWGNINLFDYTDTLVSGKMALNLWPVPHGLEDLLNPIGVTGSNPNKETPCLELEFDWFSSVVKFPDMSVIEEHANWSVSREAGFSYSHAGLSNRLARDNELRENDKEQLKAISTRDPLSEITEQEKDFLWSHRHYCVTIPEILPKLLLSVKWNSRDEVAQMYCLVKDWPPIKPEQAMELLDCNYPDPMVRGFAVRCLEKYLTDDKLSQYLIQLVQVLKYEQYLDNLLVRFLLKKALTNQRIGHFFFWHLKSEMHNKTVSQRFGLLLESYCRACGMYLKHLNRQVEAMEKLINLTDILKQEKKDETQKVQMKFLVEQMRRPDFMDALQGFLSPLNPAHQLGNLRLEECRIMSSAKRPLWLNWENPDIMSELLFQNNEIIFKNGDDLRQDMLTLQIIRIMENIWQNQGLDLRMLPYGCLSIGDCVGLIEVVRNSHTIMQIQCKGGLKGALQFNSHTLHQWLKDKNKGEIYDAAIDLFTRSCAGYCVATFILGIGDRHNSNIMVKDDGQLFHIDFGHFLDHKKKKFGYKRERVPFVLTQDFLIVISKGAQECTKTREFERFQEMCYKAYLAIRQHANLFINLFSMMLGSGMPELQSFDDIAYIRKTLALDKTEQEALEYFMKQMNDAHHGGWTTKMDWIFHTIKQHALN
Consider `CC(=O)Nc1cc(-c2sc(-c3nnc[nH]3)c(-c3ccc(Cl)cc3Cl)c2C#N)ccn1`, for which the concentration for half-maximal inhibition (IC50) is below 0.1 µM.
Consider `Cc1nn2ccccc2c1-c1nc(-c2ccccc2Cl)c(-c2nnc[nH]2)s1`, for which the IC50 is below 0.1 µM.
The molecule `CC(=O)Nc1cc(-c2nc(-c3ccccc3C(F)(F)F)c(-c3nnc[nH]3)s2)ccn1` returned an IC50 of 0.1 to 1 µM.
Take `COC(=O)Nc1cc(-c2sc(-c3nnc[nH]3)c(-c3ccc(Cl)cc3Cl)c2C#N)ccn1`: the IC50 was below 0.1 µM.
As to `CC(=O)Nc1cc(-c2sc(-c3nccn3Cc3ccc(F)cc3)c(-c3ccc(Cl)cc3Cl)c2C#N)ccn1`, the half-inhibitory concentration (IC50) was in the range of 0.1 to 1 µM.
Under `CC(=O)Nc1cc(-c2nc(-c3cc(C(=O)N4CCCC4)ccc3F)c(-c3ncc[nH]3)s2)ccn1` stands 0.1 to 1 µM; under `CCOc1nc(-c2ccnc(NC(=O)c3ccc(N(C)C)cc3)c2)sc1-c1nnc[nH]1`, 0.1 to 1 µM.
For the molecule `CCOc1nc(-c2ccnc(NC(=O)c3ccno3)c2)sc1-c1nnc[nH]1`, the IC50 was below 0.1 µM.
`Cc1nn2ccsc2c1-c1nc(-c2ccccc2)c(-c2nnn[nH]2)s1` registered an IC50 of 0.1 to 1 µM.
The molecule `N#Cc1c(-c2ccnc(NS(N)(=O)=O)c2)sc(-c2nnc[nH]2)c1-c1ccc(Cl)cc1Cl` gave an IC50 of 0.1 to 1 µM.
The molecule `Cc1nn2ccc(OC3CCN(C(=O)CO)CC3)cc2c1-c1nc(-c2ccccc2)c(-c2nnc[nH]2)s1` yielded a half-maximal inhibitory concentration (IC50) below 0.1 µM.
Take `N#Cc1c(-c2ccnc(NC(=O)C3CC3)c2)sc(-c2ncc[nH]2)c1-c1ccc(Cl)cc1Cl`: the IC50 was below 0.1 µM.
Under `CC(=O)Nc1cc(-c2sc(-c3cnn[nH]3)c(-c3ccc(Cl)cc3Cl)c2C#N)ccn1` stands below 0.1 µM.
`COc1ccc(-c2nc(-c3c(C)nn4ccccc34)sc2-c2nc[nH]n2)c(OC)c1` yielded an IC50 below 0.1 µM.
In turn, `CC(=O)Nc1cc(-c2sc(-c3nccn3Cc3ccccc3)c(-c3ccc(Cl)cc3Cl)c2C#N)ccn1` yielded an IC50 below 0.1 µM.
Under `Cc1nn2ccccc2c1-c1nc(-c2ccc(NC(=O)OCc3ccccc3)cc2)c(-c2nc[nH]n2)s1` stands 0.1 to 1 µM.
The value for `Nc1cc(-c2nc(-c3ccc(Cl)cc3Cl)c(-c3ncc[nH]3)s2)ncn1` was 0.1 to 1 µM; that for `Cc1nc2sccn2c1-c1nc(-c2ccccc2)c(-c2nnc[nH]2)s1` was below 0.1 µM.
The value for `Cc1nc2ccc(CNCCCN)cn2c1-c1nc(-c2ccccc2)c(-c2nnc[nH]2)s1` was below 0.1 µM.
`CC(=O)Nc1cc(-c2nc(-c3cccc(C(F)(F)F)c3)c(-c3ncc[nH]3)s2)ccn1` returned an IC50 of 0.1 to 1 µM.
`N#Cc1c(-c2ccnc(NCCCO)n2)sc(-c2nnc[nH]2)c1-c1ccc(Cl)cc1Cl`: the IC50 is below 0.1 µM.
Consider `C/C=C/c1nc(-c2c(C)nn3ccccc23)sc1-c1nnc[nH]1`, for which the IC50 is below 0.1 µM.
As to `Clc1ccc(-c2cc(-c3ccnc4ccccc34)sc2-c2ncc[nH]2)c(Cl)c1`, the concentration for half-maximal inhibition (IC50) lay in the range of 0.1 to 1 µM.
In turn, `Cc1nnc(-c2sc(-c3c(C)nn4ccsc34)nc2-c2ccccc2)[nH]1` showed an IC50 below 0.1 µM.
Under `N#Cc1c(-c2ccnc(NC(=O)C3CC3)c2)sc(-c2nnc[nH]2)c1-c1ccc(Cl)cc1Cl` stands below 0.1 µM; under `CC(=O)Nc1cc(-c2nc(-c3ccc(F)cc3F)c(-c3ncc[nH]3)s2)ccn1`, below 0.1 µM; under `Cc1nn2ccccc2c1-c1nc(-c2cccc(C(F)(F)F)c2)c(-c2nc[nH]n2)s1`, 0.1 to 1 µM.
In turn, `Cc1nn2ccccc2c1-c1nc(-c2ccccc2OCc2ccccc2)c(-c2nc[nH]n2)s1` yielded an IC50 of 0.1 to 1 µM.
With `Clc1ccc(-c2cc(-c3ccnc4[nH]cnc34)sc2-c2ncc[nH]2)c(Cl)c1`, the IC50 is below 0.1 µM.
The molecule `CC(=O)Nc1cc(-c2nc(-c3ccccc3)c(-c3nnc[nH]3)s2)ccn1` yielded an IC50 below 0.1 µM.
`CC(=O)Nc1cc(-c2nc(-c3ccc(C)cc3)c(-c3ncc[nH]3)s2)ccn1` had an IC50 below 0.1 µM.
`CC(=O)Nc1cc(-c2nc(-c3cn(C)nc3C(F)(F)F)c(-c3ncc[nH]3)s2)ccn1` gave an IC50 below 0.1 µM.
Turning to `N#Cc1c(-c2ccnc(NCCO)n2)sc(-c2nnc[nH]2)c1-c1ccc(Cl)cc1Cl`, the half-inhibitory concentration (IC50) was below 0.1 µM.
The molecule `COC[C@@H]1CCCN1CCC(=O)Nc1cc(-c2nc(-c3ccccc3)c(-c3nnc[nH]3)s2)ccn1` yielded an IC50 of 0.1 to 1 µM.
For the molecule `Cc1nn2ccccc2c1-c1nc(-c2c(F)cccc2F)c(-c2nc[nH]n2)s1`, the IC50 was below 0.1 µM.
Under `Clc1ccc(-c2cc(-c3ncnc4[nH]ccc34)sc2-c2ncc[nH]2)c(Cl)c1` stands below 0.1 µM; under `Cc1nc(NC(=O)C2CC2)sc1-c1nc(-c2ccccc2)c(-c2nc[nH]n2)s1`, below 0.1 µM.
The value for `Cc1nn2ccccc2c1-c1nc(-c2cnn(C)c2C)c(-c2nc[nH]n2)s1` was below 0.1 µM.
`Cc1nn2ccsc2c1-c1nc(-c2ccccc2)c(-c2ncc[nH]2)s1` came in with an IC50 below 0.1 µM.
Under `Cc1nn2ccc(OCCN3CCN(S(C)(=O)=O)CC3)cc2c1-c1nc(-c2ccccc2)c(-c2nc[nH]n2)s1` stands below 0.1 µM; under `CC(=O)Nc1cc(-c2nc(-c3cccc4cnccc34)c(-c3ncc[nH]3)s2)ccn1`, 0.1 to 1 µM.
`CC(=O)Nc1cc(-c2nc(-c3ccc(Cl)cc3Cl)c(-c3ncc[nH]3)s2)ncn1` yielded an IC50 below 0.1 µM.
In turn, `Cc1nc2scc(C)n2c1-c1nc(-c2ccccc2)c(-c2nc[nH]n2)s1` returned an IC50 of 0.1 to 1 µM.
As to `N#Cc1c(-c2ccnc(NC(N)=O)c2)sc(-c2nnc[nH]2)c1-c1ccc(Cl)cc1Cl`, the IC50 was below 0.1 µM.
Molecule `Nc1cc(-c2nc(-c3ccccc3)c(-c3nnc[nH]3)s2)ccn1` returned a half-maximal inhibitory concentration (IC50) of 0.1 to 1 µM.
As to `CCNc1nccc(-c2sc(-c3nnc[nH]3)c(-c3ccc(Cl)cc3Cl)c2C#N)n1`, the IC50 is below 0.1 µM.
With `Cc1nn2ccccc2c1-c1cc(-c2ccc(Cl)cc2Cl)c(-c2ncc[nH]2)s1`, the IC50 is below 0.1 µM.
`Cc1nn2ccccc2c1-c1nc(-c2ccc(N3CCNCC3)nc2)c(-c2nc[nH]n2)s1` showed an IC50 of 0.1 to 1 µM.
As to `c1ccc(-c2nc(-c3ccnc4ccsc34)sc2-c2nnc[nH]2)cc1`, the IC50 was below 0.1 µM.
Turning to `COc1cccc(F)c1-c1nc(-c2c(C)nn3ccc(OCCN4CCOCC4)cc23)sc1-c1nc[nH]n1`, the IC50 is below 0.1 µM.
Take `Cc1nn2ccc(OCCN3CCOCC3)cc2c1-c1nc(-c2ccccc2F)c(-c2nc[nH]n2)s1`: the IC50 is below 0.1 µM.
In turn, `Cc1nn2ccccc2c1-c1nc(-c2ccccc2C(F)(F)F)c(-c2nnc[nH]2)s1` came in with a half-maximal inhibitory concentration (IC50) below 0.1 µM.
Under `O=C(Nc1cc(-c2cc(-c3ccc(Cl)cc3Cl)c(-c3ncc[nH]3)s2)ccn1)C1CC1` stands below 0.1 µM; under `CC(=O)Nc1cc(-c2nc(-c3c(C)cccc3C)c(-c3nnc[nH]3)s2)ccn1`, 0.1 to 1 µM; under `CC(=O)Nc1cc(-c2nc(-c3ccc(Cl)cc3Cl)c(-c3ncc[nH]3)s2)c(C)cn1`, 0.1 to 1 µM.
In turn, `N#Cc1c(-c2ccnc(N)n2)sc(C(N)=O)c1-c1ccc(Cl)cc1Cl` gave an IC50 below 0.1 µM.
In turn, `Cc1nn2ccc(OCc3ccc(C(F)(F)F)nc3)cc2c1-c1nc(-c2ccccc2)c(-c2nc[nH]n2)s1` had an IC50 below 0.1 µM.
`CCCOc1nc(-c2c(C)nn3ccccc23)sc1-c1nnc[nH]1` came in with an IC50 below 0.1 µM.
With `Cc1cc(-c2cc(-c3ccc(Cl)cc3Cl)c(-c3ncc[nH]3)s2)ccn1`, the IC50 is below 0.1 µM.
In turn, `CCOc1nc(-c2ccnc(NC(=O)c3ccco3)c2)sc1-c1nnc[nH]1` gave an IC50 of 0.1 to 1 µM.
Under `Cc1nn2ccsc2c1-c1nc(-c2ccccc2)c(-c2ccn[nH]2)s1` stands below 0.1 µM; under `CCOc1nc(-c2ccnc(NC(=O)c3ccc(OC)cc3)c2)sc1-c1nnc[nH]1`, 0.1 to 1 µM.
Molecule `CCOc1cccc(F)c1-c1nc(-c2c(C)nn3ccccc23)sc1-c1nc[nH]n1` came in with a half-maximal inhibitory concentration (IC50) of 0.1 to 1 µM.
`Cc1ccc(-c2nc(-c3c(C)nn4ccccc34)sc2-c2nc[nH]n2)s1` displayed an IC50 below 0.1 µM.
Under `CC(=O)Nc1cc(-c2nc(-c3ccc(N(C)C)cc3)c(-c3ncc[nH]3)s2)ccn1` stands 0.1 to 1 µM; under `CCNC(=O)Nc1cc(-c2nc(OCC)c(-c3nc[nH]n3)s2)ccn1`, 0.1 to 1 µM.
The molecule `N#Cc1c(-c2ccnc(NC(=O)c3cccnc3)c2)sc(-c2nnc[nH]2)c1-c1ccc(Cl)cc1Cl` registered an IC50 of 0.1 to 1 µM.
`CCOc1nc(-c2ccnc(NC(=O)COC)c2)sc1-c1nnc[nH]1` showed an IC50 of 0.1 to 1 µM.
As for `Cc1cc(C(=O)Nc2cc(-c3sc(-c4nnc[nH]4)c(-c4ccc(Cl)cc4Cl)c3C#N)ccn2)no1`, the IC50 lay in the range of 0.1 to 1 µM.
The value for `O=c1ccc2c(-c3nc(-c4ccc(Cl)cc4Cl)c(-c4ncc[nH]4)s3)ccnc2[nH]1` was below 0.1 µM; that for `CNCC(=O)Nc1cc(-c2sc(-c3nnc[nH]3)c(-c3ccc(Cl)cc3Cl)c2C#N)ccn1` was 0.1 to 1 µM.
`N#Cc1c(-c2ccnc(N)c2)sc(C(N)=O)c1-c1ccc(Cl)cc1Cl` came in with an IC50 below 0.1 µM.
The molecule `Cc1nn2ccc(OCCN3CCCCC3)cc2c1-c1nc(-c2ccccc2)c(-c2nnc[nH]2)s1` returned an IC50 below 0.1 µM.
Under `Cc1nn2ccccc2c1-c1nc(C2CCOCC2)c(-c2nnc[nH]2)s1` stands below 0.1 µM.
`CC(=O)Nc1cc(-c2nc(Br)c(-c3ncc[nH]3)s2)ccn1` registered an IC50 of 0.1 to 1 µM.
Consider `CCOc1nc(-c2ccnc(NC(C)=O)c2)sc1-c1nnc[nH]1`, for which the IC50 is below 0.1 µM.
On to `Cc1nc2ccc(CN3CC[C@H](N)C3)cn2c1-c1nc(-c2ccccc2)c(-c2nnc[nH]2)s1`, for which the IC50 is below 0.1 µM.
`Cc1nn2ccccc2c1-c1nc(-c2c(F)cccc2Cl)c(-c2nc[nH]n2)s1` yielded a half-inhibitory concentration (IC50) below 0.1 µM.
`CC(C)(C)OC(=O)Nc1cc(-c2sc(-c3nnc[nH]3)c(-c3ccc(Cl)cc3Cl)c2C#N)ccn1` displayed an IC50 of 0.1 to 1 µM.
On to `Cc1nn2ccc(OC3CCNCC3)cc2c1-c1nc(-c2ccccc2)c(-c2nc[nH]n2)s1`, for which the IC50 was below 0.1 µM.
With `N#Cc1c(-c2ccnc(N)c2)sc(-c2cnn[nH]2)c1-c1ccc(Cl)cc1Cl`, the IC50 lay within 0.1 to 1 µM.
For the molecule `CNC(=O)Nc1cc(-c2sc(-c3ccn[nH]3)c(-c3ccc(Cl)cc3Cl)c2C#N)ccn1`, the IC50 lay in the range of 0.1 to 1 µM.
`CCC(=O)Nc1cc(-c2sc(-c3nnc[nH]3)c(-c3ccc(Cl)cc3Cl)c2C#N)ccn1` came in with an IC50 below 0.1 µM.
As to `Nc1nc2c(-c3cc(-c4ccc(Cl)cc4Cl)c(-c4ncc[nH]4)s3)ncnc2s1`, the IC50 is below 0.1 µM.
The value for `CC(=O)Nc1cc(-c2sc(-c3ccn[nH]3)c(-c3ccc(Cl)cc3Cl)c2C#N)ccn1` was below 0.1 µM; that for `CC(=O)Nc1cc(-c2nc(-c3ccccc3)c(-c3ncc[nH]3)s2)ccn1` was 0.1 to 1 µM.

The term IC50 denotes the concentration that gives 50% inhibition. Higher therefore signals lower potency.
